Test systems include SK-OV-3 ovarian; ACHN renal; MDA-MB-231 breast; SF-539 CNS; UACC-62 melanoma; A549 NSCLC; HOP-92 NSCLC; M14 melanoma; HCT-15 colon; SNB-75 CNS.
Assay in all cases: NCI-60 cell line screen, 48 h

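Method: 48-hour compound exposure of cells in 96-well plates, five concentrations, linear interpolation of endpoints. At the GI50, growth is halved. TGI: total growth inhibition.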 A value given as a limit tells only on which side of the number the result lay.

Regarding `CC(=O)Oc1cccc2c(/C=N/NC(N)=S)ncc(C)c12`, the TGI in the assay on SK-OV-3 ovarian turned out to be 17.1 µM; in the assay on ACHN renal, 2.7 µM; in the assay on MDA-MB-231 breast, 25.8 µM; in the assay on SF-539 CNS, 1.98 µM; in the assay on UACC-62 melanoma it was 12.3 µM; in the assay with A549 NSCLC, 25.6 µM. Moreover, the TGI was 32.9 µM in the assay with HOP-92 NSCLC, 3.18 µM in the assay on M14 melanoma, 24.1 µM with HCT-15 colon and over 55.6 µM in the assay on SNB-75 CNS.

As for `NNC(N)Nc1ccccc1` (configuration not stated), the TGI in the assay on SK-OV-3 ovarian, in the assay on ACHN renal, in the assay on MDA-MB-231 breast, in the assay with SF-539 CNS, in the assay with UACC-62 melanoma and in the assay on A549 NSCLC was over 100 µM throughout. For the same molecule, the TGI in the assay with HOP-92 NSCLC, in the assay on M14 melanoma and in the assay on HCT-15 colon was over 100 µM in each case.

Turning to `C=CC(Br)(CBr)CCC(Cl)C(C)C` (configuration not stated), the TGI stood at 18.6 µM with SK-OV-3 ovarian; 8.49 µM in the assay with ACHN renal; 2.79 µM in the assay on MDA-MB-231 breast; 3.84 µM with SF-539 CNS; 2.98 µM with UACC-62 melanoma; 18 µM with A549 NSCLC. Moreover, the TGI turned out to be 4.72 µM in the assay with HOP-92 NSCLC, 3.18 µM in the assay with M14 melanoma and 3.04 µM in the assay with SNB-75 CNS.

Regarding `CCC[CH2][Ge]([CH2]CCC)([CH2]CCC)[O]C(=O)CC(=O)c1ccccc1`, the GI50 in the assay with SK-OV-3 ovarian was 0.667 µM; in the assay with ACHN renal, 2.67 µM; with SF-539 CNS, 1.57 µM; in the assay with UACC-62 melanoma, 1.7 µM; in the assay on A549 NSCLC, 0.735 µM; in the assay with HOP-92 NSCLC, 0.331 µM. Moreover, the GI50 was 1.42 µM with M14 melanoma and 0.316 µM in the assay with HCT-15 colon. The TGI was determined as 14 µM with SK-OV-3 ovarian; 16.8 µM with ACHN renal; 6.17 µM in the assay on SF-539 CNS; 10.1 µM with UACC-62 melanoma; 15.9 µM in the assay on A549 NSCLC; 9.88 µM in the assay with HOP-92 NSCLC. Further, the TGI in the assay with M14 melanoma is 8.86 µM; in the assay with HCT-15 colon, 10.4 µM.

With `c1ccc(N=C2SC(=NC3CCCCC3)N(C3CCCCC3)C2=Nc2ccccc2)cc1`, the TGI in the assay with SK-OV-3 ovarian, with MDA-MB-231 breast, in the assay on UACC-62 melanoma, in the assay on M14 melanoma, in the assay on HCT-15 colon and with SNB-75 CNS was over 100 µM in each case.

As to `NCCCNc1nc2ccccc2c2c(=O)c3cc(OC(F)(F)F)ccc3sc12`, the GI50 with ACHN renal was 1.6 µM; in the assay on MDA-MB-231 breast, 1.26 µM; with SF-539 CNS, 1.68 µM; in the assay on UACC-62 melanoma, 1.66 µM; in the assay on HOP-92 NSCLC, 1.08 µM; in the assay with M14 melanoma it was 1.67 µM. Moreover, the GI50 in the assay on SNB-75 CNS is 1.39 µM. The TGI in the assay on ACHN renal came out at 2.96 µM; in the assay on MDA-MB-231 breast it was 2.6 µM; in the assay on SF-539 CNS, 3.15 µM; with UACC-62 melanoma, 3.07 µM; with HOP-92 NSCLC it was 2.36 µM; with M14 melanoma, 3.16 µM. In the assay with SNB-75 CNS, this molecule had a TGI of 2.73 µM.

Consider `Cc1cc(=O)[nH]c(NN2C(Cl)C(=O)C2c2cccc(O)c2)n1` (configuration not stated), for which the TGI is over 100 µM with ACHN renal; 31.6 µM with SF-539 CNS; 17.8 µM in the assay with UACC-62 melanoma; over 100 µM with A549 NSCLC; over 100 µM in the assay with HOP-92 NSCLC; over 100 µM in the assay with M14 melanoma. Further, the TGI with HCT-15 colon is over 100 µM; with SNB-75 CNS, 6.73 µM.

In the case of `NC(CCCCP(=O)(O)O)C(=O)O` (configuration not stated), the TGI in the assay with SK-OV-3 ovarian, in the assay on ACHN renal, in the assay with MDA-MB-231 breast, in the assay on SF-539 CNS, in the assay with UACC-62 melanoma and in the assay with A549 NSCLC was over 100 µM throughout. For the same molecule, the TGI in the assay on HOP-92 NSCLC, in the assay on M14 melanoma, in the assay with HCT-15 colon and with SNB-75 CNS was over 100 µM each time.

The values are drawn from PubChem BioAssay (NCI).
